The source of these data is patent publication US8735414B2 (priority 2009, dated 2014).

The subject of data set [1] is bicistronic HCV replicon (replicon RNA, GenBank Accession No. AJ242654). The data set is described as follows: HCV Replicon Assay. The settings on record: Hepatitis C virus, 72 h, read-out: Replicon IC50. It counts as cell-based. In general terms: In antiviral work, replicon cells carry a viral genome segment that copies itself.

One may read the IC50 as the concentration that gives 50% inhibition. The term melting point denotes the temperature of the solid-liquid transition. Compound `CCc1cc2c(cc1F)c(C#N)c(-c1ccc(S(=O)(=O)N[C@@H](C)C(F)(F)F)cn1)n2-c1ccc(Cl)cn1` [compound 966, 6-[1-(5-chloropyridin-2-yl)-3-cyano-6-ethyl-5-fluoro-1H-indol-2-yl]-N-[(2S)-1,1,1-trifluoropropan-2-yl]pyridine-3-sulfonamide] showed a melting point of 252 to 259 °C. In data set [1], the IC50 is less than 500 nM.

Compound `C[C@H](NS(=O)(=O)c1ccc(-c2c(C#N)c3cc(F)c(OC(F)F)cc3n2-c2ccccn2)nc1)C(F)(F)F` [compound 657, 6-[3-cyano-6-(difluoromethoxy)-5-fluoro-1-(pyridine-2-yl)-1H-indol-2-yl]-N-[(2S)-1,1,1-trifluoropropan-2-yl]pyridine-3-sulfonamide] had a melting point of 161 to 163 °C. In addition, the IC50 in data set [1] was less than 500 nM.

On to `C[C@@H](C1CC1)n1c(-c2ccc(NS(=O)(=O)C(C)(C)C)nc2)c(C(N)=O)c2cc(F)c(OC(F)F)cc21` [compound 1081, 2-{6-[(tert-butylsulfonyl)amino]pyridin-3-yl}-1-[(1S)-1-cyclopropylethyl]-6-(difluoromethoxy)-5-fluoro-1H-indole-3-carboxamide], for which the melting point lay in the range of 239 to 241 °C. In data set [1], the IC50 is less than 500 nM.

Regarding `CC(C)(NS(=O)(=O)c1ccc(-c2c(C#N)c3ccc(OC(F)F)cc3n2-c2ccc(F)cc2)nc1)C(F)(F)F` [compound 687, 6-[3-cyano-6-(difluoromethoxy)-1-(4-fluorophenyl)-1H-indol-2-yl]-N-(1,1,1-trifluoro-2-methylpropan-2-yl)pyridine-3-sulfonamide], the melting point is 215 to 216 °C. For the same compound, the IC50 in data set [1] was less than 500 nM.

On to `CCc1cc2c(cc1F)c(C(N)=O)c(-c1ccc(S(=O)(=O)NC(C)(C)C(F)(F)F)cn1)n2-c1ncccn1` [compound 978, 6-ethyl-5-fluoro-1-(pyrimidin-2-yl)-2-{5-[(1,1,1-trifluoro-2-methylpropan-2-yl)sulfamoyl]pyridin-2-yl}-1H-indole-3-carboxamide], for which the melting point was in the range of 261 to 269 °C. The IC50 in data set [1] was in the range of 2000 to 5000 nM.

In the case of `CCc1cc2c(cc1F)c(C#N)c(-c1ccc(S(=O)(=O)N[C@@H](C)C(F)(F)F)cn1)n2-c1ccc(F)c(F)c1` [compound 1061, 6-[3-cyano-1-(3,4-difluorophenyl)-6-ethyl-5-fluoro-1H-indol-2-yl]-N-[(2S)-1,1,1-trifluoropropan-2-yl]pyridine-3-sulfonamide], the melting point fell in the range of 229 to 235 °C. Further, the IC50 in data set [1] was less than 500 nM.

Consider `COc1ccc2c(c1)c(C#N)c(-c1ncc(S(=O)(=O)NC(CF)CF)cn1)n2C1CCCC1` [compound 572, 2-(3-cyano-1-cyclopentyl-5-methoxy-1H-indol-2-yl)-N-(1,3-difluoropropan-2-yl)pyrimidine-5-sulfonamide], for which the melting point is 200 to 202 °C. In addition, in data set [1], the IC50 was less than 500 nM.

Take `Cc1cc2c(C#N)c(-c3ccc(S(=O)(=O)N[C@@H](C)C(F)(F)F)cn3)n(C3CCCC3)c2cc1F` [compound 483, 6-(3-cyano-1-cyclopentyl-6-fluoro-5-methyl-1H-indol-2-yl)-N-[(2S)-1,1,1-trifluoropropan-2-yl]pyridine-3-sulfonamide]: the melting point lay in the range of 219 to 223 °C. The IC50 in data set [1] was less than 500 nM.

With `Cc1ccc2c(c1)c(C#N)c(-c1ncc(S(=O)(=O)N[C@@H](C)C3CC3)cn1)n2C1CCCC1` [compound 562, 2-(3-cyano-1-cyclopentyl-5-methyl-1H-indol-2-yl)-N-[(1S)-1-cyclopropylethyl]pyrimidine-5-sulfonamide], the melting point was in the range of 168 to 171 °C. The IC50 in data set [1] is less than 500 nM.

Regarding `N#Cc1c(-c2ccc(S(=O)(=O)NC3(C(F)(F)F)CC3)cn2)n(C2CCCC2)c2ccc(F)cc12` [compound 327, 6-(3-cyano-1-cyclopentyl-5-fluoro-1H-indol-2-yl)-N-[1-(trifluoromethyl)cyclopropyl]pyridine-3-sulfonamide], the melting point lay within 202 to 206 °C. The IC50 in data set [1] is less than 500 nM.

Take `COc1ccc2c(C#N)c(-c3ccc(S(=O)(=O)N[C@H](C)C(F)(F)F)cn3)n(C3CCCC3)c2c1` [compound 431, 6-(3-cyano-1-cyclopentyl-6-methoxy-1H-indol-2-yl)-N-[(2R)-1,1,1-trifluoropropan-2-yl]pyridine-3-sulfonamide]: the melting point lay in the range of 209 to 216 °C. Moreover, the IC50 in data set [1] was less than 500 nM.

`CC(C)n1c(-c2ccc(S(=O)(=O)NC(CF)CF)cn2)c(C#N)c2cc(Cl)ccc21` [compound 65, 6-[5-chloro-3-cyano-1-(propan-2-yl)-1H-indol-2-yl]-N-(1,3-difluoropropan-2-yl)pyridine-3-sulfonamide]: the melting point lay within 212 to 215 °C. Besides, the IC50 in data set [1] was less than 500 nM.

The compound `Cc1cc2c(cc1F)c(C(N)=O)c(-c1ccc(S(N)(=O)=O)cn1)n2C1CCCCC1` [compound 715, 1-cyclohexyl-5-fluoro-6-methyl-2-(5-sulfamoylpyridin-2-yl)-1H-indole-3-carboxamide] displayed a melting point of 254 to 257 °C. Moreover, in data set [1], the IC50 is less than 500 nM.

`CC(C)Cn1c(-c2ccc(S(=O)(=O)N[C@@H](C)C(F)(F)F)cn2)c(C#N)c2cc(F)c(OC(F)F)cc21` [compound 937, 6-[3-cyano-6-(difluoromethoxy)-5-fluoro-1-(2-methylpropyl)-1H-indol-2-yl]-N-[(2S)-1,1,1-trifluoropropan-2-yl]pyridine-3-sulfonamide] returned a melting point of 130 to 134 °C. The IC50 in data set [1] was less than 500 nM.

`C[C@H](NS(=O)(=O)c1ccc(-c2c(C#N)c3ccc(CC(F)F)cc3n2C2CCC2)nc1)C1CC1` [compound 590, 6-[3-cyano-1-cyclobutyl-6-(2,2-difluoroethyl)-1H-indol-2-yl]-N-[(1S)-1-cyclopropylethyl]pyridine-3-sulfonamide] returned a melting point of 146 to 155 °C. The IC50 in data set [1] was less than 500 nM.

As for `CC(C)c1ccc2c(C#N)c(-c3ncc(S(=O)(=O)N[C@@H](C)C(F)(F)F)cn3)n(C3CCC3)c2c1` [compound 455, 2-[3-cyano-1-cyclobutyl-6-(propan-2-yl)-1H-indol-2-yl]-N-[(2S)-1,1,1-trifluoropropan-2-yl]pyrimidine-5-sulfonamide], the melting point lay in the range of 217 to 222 °C. For the same compound, the IC50 in data set [1] is less than 500 nM.

The compound `N#Cc1c(-c2ncc(S(=O)(=O)NC(CF)CF)cn2)n(-c2ccccc2)c2cc(OC(F)F)ccc12` [compound 610, 2-[3-cyano-6-(difluoromethoxy)-1-phenyl-1H-indol-2-yl]-N-(1,3-difluoropropan-2-yl)pyrimidine-5-sulfonamide] had a melting point of 206 to 208 °C. Moreover, the IC50 in data set [1] is less than 500 nM.

In turn, `C[C@H](NS(=O)(=O)c1cnc(-c2c(C#N)c3ccc(OC(F)F)cc3n2C2CCCC2)nc1)C1CC1` [compound 209, 2-[3-cyano-1-cyclopentyl-6-(difluoromethoxy)-1H-indol-2-yl]-N-[(1S)-1-cyclopropylethyl]pyrimidine-5-sulfonamide] had a melting point of 183 to 185 °C. Also, the IC50 in data set [1] is less than 500 nM.

`Cc1ccc2c(C#N)c(-c3ncc(S(=O)(=O)NC(CF)CF)cn3)n(C3CCC3)c2c1` [compound 132, 2-(3-cyano-1-cyclobutyl-6-methyl-1H-indol-2-yl)-N-(1,3-difluoropropan-2-yl)pyrimidine-5-sulfonamide]: the melting point fell in the range of 236 to 238 °C. In addition, the IC50 in data set [1] is less than 500 nM.

As to `Cc1c(F)cc2c(C#N)c(-c3ccc(S(=O)(=O)NC(CF)CF)cn3)n(C3CCCC3)c2c1F` [compound 509, 6-(3-cyano-1-cyclopentyl-5,7-difluoro-6-methyl-1H-indol-2-yl)-N-(1,3-difluoropropan-2-yl)pyridine-3-sulfonamide], the melting point lay within 199 to 203 °C. Besides, the IC50 in data set [1] was less than 500 nM.

The compound `N#Cc1ccc2c(C#N)c(-c3ncc(S(=O)(=O)NC(CF)CF)cn3)n(C3CCC3)c2c1` [compound 466, 2-(3,6-dicyano-1-cyclobutyl-1H-indol-2-yl)-N-(1,3-difluoropropan-2-yl)pyrimidine-5-sulfonamide] returned a melting point of 240 to 241 °C. For the same compound, the IC50 in data set [1] is less than 500 nM.

As to `N#Cc1c(-c2ncc(S(=O)(=O)NC(CF)CF)cn2)n(C2CCC2)c2cc(CF)ccc12` [compound 361, 2-[3-cyano-1-cyclobutyl-6-(fluoromethyl)-1H-indol-2-yl]-N-(1,3-difluoropropan-2-yl)pyrimidine-5-sulfonamide], the melting point lay in the range of 226 to 232 °C. In addition, the half-inhibitory concentration (IC50) in data set [1] is less than 500 nM.

Take `CCc1cc2c(cc1F)c(C#N)c(-c1ccc(S(=O)(=O)N[C@@H](C)C(F)(F)F)c(C)n1)n2-c1ncccn1` [compound 881, 6-[3-cyano-6-ethyl-5-fluoro-1-(pyrimidin-2-yl)-1H-indol-2-yl]-2-methyl-N-[(2S)-1,1,1-trifluoropropan-2-yl]pyridine-3-sulfonamide]: the melting point was 258 to 262 °C. Also, the IC50 in data set [1] is less than 500 nM.

On to `C[C@H](NS(=O)(=O)c1cnc(-c2c(C#N)c3cc(F)ccc3n2C2CCC2)nc1)C1CC1` [compound 544, 2-(3-cyano-1-cyclobutyl-5-fluoro-1H-indol-2-yl)-N-[(1S)-1-cyclopropylethyl]pyrimidine-5-sulfonamide], for which the melting point lay in the range of 178 to 181 °C. Also, the IC50 in data set [1] is less than 500 nM.

`Cc1cc2c(cc1Cl)c(C(N)=O)c(-c1ccc(S(=O)(=O)N[C@@H](C)C(F)(F)F)cn1)n2C1CCC1` [compound 734, 5-chloro-1-cyclobutyl-6-methyl-2-(5-{[(2S)-1,1,1-trifluoropropan-2-yl]sulfamoyl}pyridin-2-yl)-1H-indole-3-carboxamide] returned a melting point of 207 to 209 °C. Besides, the IC50 in data set [1] was less than 500 nM.

Consider `COc1ccc2c(C#N)c(-c3ccc(S(=O)(=O)N[C@@H](C)C4CC4)cn3)n(C3CCC3)c2c1` [compound 429, 6-(3-cyano-1-cyclobutyl-6-methoxy-1H-indol-2-yl)-N-[(1S)-1-cyclopropylethyl]pyridine-3-sulfonamide], for which the melting point was in the range of 193 to 199 °C. Moreover, in data set [1], the IC50 was less than 500 nM.
